Laboratory results: the supplement of paper PMC10307832

What was measured:
Assay in all cases: relative viability (nuclei count vs DMSO), 5 days (fraction); higher = more cells survive
[1] = compound: CS(=O)(=O)N1CCN(Cc2cc3nc(-c4cccc5[nH]ncc45)nc(N4CCOCC4)c3s2)CC1 [Pictilisib] + CS(=O)(=O)CCNCc1ccc(-c2ccc3ncnc(Nc4ccc(OCc5cccc(F)c5)c(Cl)c4)c3c2)o1 [Lapatinib] (partner 2 µM)
Outline: (§1)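 Each reported value is a median over duplicate plates. It expresses relative viability: treated-well nuclei count divided by vehicle-well nuclei count. Lung cancer cell lines in 1536-well plates were dosed by pin tool a day after seeding, alone with one drug or with a fixed anchor-drug dose plus five library-drug doses (not always all listed) in √10 steps, and nuclei were counted after 5 days.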

[2] = compound: CS(=O)(=O)N1CCN(Cc2cc3nc(-c4cccc5[nH]ncc45)nc(N4CCOCC4)c3s2)CC1 [Pictilisib] + N=C(N)NC(=N)NCCc1ccccc1 [Phenformin] (partner 250 µM)
Outline: as §1

[3] = compound: NC1(c2ccc(-c3nc4ccn5c(=O)[nH]nc5c4cc3-c3ccccc3)cc2)CCC1 [MK-2206] + CC1(C)CCC(c2ccc(Cl)cc2)=C(CN2CCN(c3ccc(C(=O)NS(=O)(=O)c4ccc(N[C@H](CCN5CCOCC5)CSc5ccccc5)c(S(=O)(=O)C(F)(F)F)c4)cc3)CC2)C1 [Navitoclax] (partner 0.5 µM)
Outline: as §1

[4] = compound: NC1(c2ccc(-c3nc4ccn5c(=O)[nH]nc5c4cc3-c3ccccc3)cc2)CCC1 [MK-2206] + CCNC(=O)c1noc(-c2cc(C(C)C)c(O)cc2O)c1-c1ccc(CN2CCOCC2)cc1 [Luminespib] (partner 0.01 µM)
Outline: as §1

[5] = compound: NC1(c2ccc(-c3nc4ccn5c(=O)[nH]nc5c4cc3-c3ccccc3)cc2)CCC1 [MK-2206] + Nc1ncn([C@H]2C[C@H](O)[C@@H](CO)O2)c(=O)n1 [Decitabine] (partner 2 µM)
Outline: as §1

Row | Cell Line | relative viability ([1]; first compound 0.02 µM) | relative viability ([1]; first compound 0.06325 µM) | relative viability ([1]; first compound 0.6325 µM) | relative viability ([1]; first compound 2 µM) | relative viability ([2]; first compound 0.02 µM) | relative viability ([2]; first compound 0.06325 µM) | relative viability ([2]; first compound 0.6325 µM) | relative viability ([2]; first compound 2 µM) | relative viability ([3]; first compound 0.01 µM) | relative viability ([3]; first compound 0.03162 µM) | relative viability ([3]; first compound 0.3162 µM) | relative viability ([3]; first compound 1 µM) | relative viability ([4]; first compound 0.01 µM) | relative viability ([4]; first compound 0.03162 µM) | relative viability ([4]; first compound 0.3162 µM) | relative viability ([4]; first compound 1 µM) | relative viability ([5]; first compound 0.01 µM) | relative viability ([5]; first compound 0.03162 µM) | relative viability ([5]; first compound 0.3162 µM) | relative viability ([5]; first compound 1 µM)
1 | NCI-H520 | 0.834 | 0.864 | 0.365 | 0.164 | 0.613 | 0.516 | 0.19 | 0.2 | 1.11 | 1.09 | 0.701 | 0.489 | 0.213 | 0.214 | 0.203 | 0.207 | 0.489 | 0.527 | 0.264 | 0.212
2 | NCI-H596 | 1.1 | 1.02 | 0.602 | 0.367 | 0.697 | 0.697 | 0.375 | 0.305 | 0.948 | 1.06 | 0.756 | 0.669 | 0.984 | 0.919 | 0.889 | 0.737 | 1.03 | 1.03 | 0.99 | 0.914
3 | NCI-H647 | 1.15 | 1.11 | 0.833 | 0.429 | 0.667 | 0.698 | 0.291 | 0.227 | 1.02 | 1.21 | 0.969 | 1.02 | 0.0812 | 0.159 | 0.156 | 0.126 | 0.39 | 0.365 | 0.414 | 0.408
4 | NCI-H727 | 0.876 | 0.825 | 0.781 | 0.654 | 0.564 | 0.529 | 0.554 | 0.38 | 0.424 | 0.367 | 0.212 | 0.314 | 0.328 | 0.306 | 0.337 | 0.345 | 0.959 | 0.833 | 0.884 | 0.755
5 | NCI-H838 | 1.15 | 0.875 | 0.728 | 0.387 | 0.541 | 0.628 | 0.329 | 0.224 | 1.15 | 1.19 | 1.19 | 1.04 | 0.288 | 0.303 | 0.244 | 0.282 | 0.472 | 0.494 | 0.496 | 0.451
6 | NCI-H1355 | 1.01 | 1 | 0.981 | 0.615 | 0.493 | 0.467 | 0.393 | 0.248 | 0.961 | 0.828 | 0.961 | 0.819 | 0.799 | 0.689 | 0.752 | 0.696 | 0.347 | 0.362 | 0.379 | 0.345
7 | NCI-H1395 | 1.18 | 1.1 | 0.884 | 0.563 | 0.453 | 0.425 | 0.386 | 0.399 | 1.17 | 1.63 | 1.12 | 0.927 | 0.77 | 0.606 | 0.746 | 0.651 | 0.703 | 0.853 | 0.705 | 0.657
